Measured values: patent US8394848B2, “Compounds that modulate intracellular calcium” (Calcimedica, Inc., priority 2008, dated 2013)

Test system: JR251 or RBL cells
Test: Store-operated calcium entry, either JR251 or RBL cells, or both
Assay type: cell-based
Summary of the method: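 Orai1/STIM1 stable cells: fluo-4-AM loaded, compound 30 min at RT in Ca2+-free HBSS, then CaCl2 added; IC50 from Peak-Basal FLIPR fluorescence. RBL-2H3 cells: compound 5 min, then thapsigargin (5.5× stock, 5.5 uM) 25 min, then calcium added; IC50 from Upslope (signal 7 s after calcium minus baseline).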

IC50, < 10 µM:
O=C(Nc1scc(-c2ccc(Cl)cc2)c1C(=O)O)c1nc2cc(Cl)ccc2o1 [2-(5-chlorobenzo[d]oxazole-2-carboxamido)-4-(4-chlorophenyl)thiophene-3-carboxylic acid]
O=C(O)c1c(-c2ccc(Cl)cc2)csc1NC(=O)C1Cc2ccc([N+](=O)[O-])cc2C1 (centres unmarked) [4-(4-chlorophenyl)-2-(5-nitro-2,3-dihydro-1H-indene-2-carboxamido)thiophene-3-carboxylic acid]
CCc1cccc(NC(=O)Nc2scc(-c3ccc(Br)cc3)c2C(=O)O)c1 [4-(4-bromophenyl)-2-(3-(3-ethylphenyl)ureido)thiophene-3-carboxylic acid]
O=C(O)c1c(-c2ccc(Br)cc2)csc1NC(=O)C(F)Cc1cc(F)ccc1Cl (centres unmarked) [4-(4-bromophenyl)-2-(3-(2-chloro-5-fluorophenyl)-2-fluoropropanamido)thiophene-3-carboxylic acid]
Cc1ccc(-c2csc(NC(=O)c3ccsc3)c2C(=O)O)cc1 [2-(thiophene-3-carboxamido)-4-p-tolylthiophene-3-carboxylic acid]
O=C(Nc1scc(-c2ccc(Cl)cc2)c1C(=O)O)c1nc2cccc(F)c2s1 [4-(4-chlorophenyl)-2-(7-fluorobenzo[d]thiazole-2-carboxamido)thiophene-3-carboxylic acid]
COc1cccc(C(=O)Nc2scc(-c3ccc(Br)cc3)c2C(=O)O)n1 [4-(4-bromophenyl)-2-(6-methoxypicolinamido)thiophene-3-carboxylic acid]
O=C(Nc1scc(-c2ccc(Cl)cc2)c1C(=O)O)c1nc2c(F)cccc2s1 [4-(4-chlorophenyl)-2-(4-fluorobenzo[d]thiazole-2-carboxamido)thiophene-3-carboxylic acid]
O=C(CCCCc1ccccc1)Nc1scc(-c2ccc(Cl)cc2)c1C(=O)O [4-(4-chlorophenyl)-2-(5-phenylpentanamido)thiophene-3-carboxylic acid]
O=C(NCc1ccccc1)Nc1scc(-c2ccc(Br)cc2)c1C(=O)O [2-(3-benzylureido)-4-(4-bromophenyl)thiophene-3-carboxylic acid]
O=C(CCc1ccc(F)cc1F)Nc1scc(-c2ccc(Cl)cc2)c1C(=O)O [4-(4-chlorophenyl)-2-(3-(2,4-difluorophenyl)propanamido)thiophene-3-carboxylic acid]
O=C(Nc1scc(-c2ccc(Cl)cc2)c1C(=O)O)c1ccsc1 [4-(4-chlorophenyl)-2-(thiophene-3-carboxamido)thiophene-3-carboxylic acid]
O=C(Nc1scc(-c2cc(F)c(Cl)cc2F)c1C(=O)O)c1nc2ccccc2o1 [2-(benzo[d]oxazole-2-carboxamido)-4-(4-chloro-2,5-difluorophenyl)thiophene-3-carboxylic acid]
O=C(Nc1scc(-c2cc(F)c(Cl)c(F)c2)c1C(=O)O)c1nc2ccccc2o1 [2-(benzo[d]oxazole-2-carboxamido)-4-(4-chloro-3,5-difluorophenyl)thiophene-3-carboxylic acid]
O=C(Nc1scc(-c2ccc(Cl)cc2)c1C(=O)O)c1nc2ccccc2[nH]1 [2-(1H-benzo[d]imidazole-2-carboxamido)-4-(4-chlorophenyl)thiophene-3-carboxylic acid]
Cc1ccsc1C(=O)Nc1scc(-c2ccc(Cl)cc2)c1C(=O)O [4-(4-chlorophenyl)-2-(3-methylthiophene-2-carboxamido)thiophene-3-carboxylic acid]
Cc1ccc(-c2csc(NC(=O)c3nc4cccc(C#N)c4o3)c2C(=O)O)c(F)c1F [2-(7-cyanobenzo[d]oxazole-2-carboxamido)-4-(2,3-difluoro-4-methylphenyl)thiophene-3-carboxylic acid]
O=C(O)c1c(-c2ccc(Cl)cc2)csc1NC(=O)C1Cc2ccccc2C1 [4-(4-chlorophenyl)-2-(2,3-dihydro-1H-indene-2-carboxamido)thiophene-3-carboxylic acid]
Cc1ccc(-c2csc(NC(=O)c3ccc4snnc4c3)c2C(=O)O)c(F)c1F [2-(benzo[d][1,2,3]thiadiazole-5-carboxamido)-4-(2,3-difluoro-4-methylphenyl)thiophene-3-carboxylic acid]
O=C(Nc1scc(-c2ccc(Br)cc2)c1C(=O)O)c1ccc(-c2ccccc2)s1 [4-(4-bromophenyl)-2-(5-phenylthiophene-2-carboxamido)thiophene-3-carboxylic acid]
Cc1ccc(-c2csc(NC(=O)c3nc4ccc(Br)cc4o3)c2C(=O)O)c(F)c1F [2-(6-bromobenzo[d]oxazole-2-carboxamido)-4-(2,3-difluoro-4-methylphenyl)thiophene-3-carboxylic acid]
O=C(Nc1scc(/C=C/c2ccc(Cl)cc2)c1C(=O)O)c1cc2ccccc2o1 [(E)-2-(benzofuran-2-carboxamido)-4-(4-chlorostyryl)thiophene-3-carboxylic acid]
O=C(Nc1scc(-c2cc3cc(Cl)ccc3o2)c1C(=O)O)c1cc2ccccc2o1 [2-(benzofuran-2-carboxamido)-4-(5-chlorobenzofuran-2-yl)thiophene-3-carboxylic acid]
O=C(O)c1c(-c2ccc(Cl)cc2)csc1NC(=O)[C@@H]1CCc2ccccc2C1 [(R)-4-(4-chlorophenyl)-2-(1,2,3,4-tetrahydronaphthalene-2-carboxamido)thiophene-3-carboxylic acid]
O=C(Nc1scc(-c2ccc(Cl)cc2)c1C(=O)O)c1cc2sccc2s1 [4-(4-chlorophenyl)-2-(thieno[3,2-b]thiophene-2-carboxamido)thiophene-3-carboxylic acid]
O=C(Nc1scc(-c2ccc(Cl)cc2)c1C(=O)O)c1ccco1 [4-(4-chlorophenyl)-2-(furan-2-carboxamido)thiophene-3-carboxylic acid]
Cc1ccc(-c2csc(NC(=O)c3nc4ccc(F)cc4o3)c2C(=O)O)c(F)c1F [4-(2,3-difluoro-4-methylphenyl)-2-(6-fluorobenzo[d]oxazole-2-carboxamido)thiophene-3-carboxylic acid]
O=C(Nc1scc(-c2ccc(Br)cc2)c1C(=O)O)c1ccnnc1 [4-(4-bromophenyl)-2-(pyridazine-4-carboxamido)thiophene-3-carboxylic acid]
O=C1CC(C(=O)Nc2scc(-c3ccc(Cl)cc3)c2C(=O)O)Cc2ccccc21 (centres unmarked) [4-(4-chlorophenyl)-2-(4-oxo-1,2,3,4-tetrahydronaphthalene-2-carboxamido)thiophene-3-carboxylic acid]
Cc1ccc(-c2csc(NC(=O)c3nc4ccccc4s3)c2C(=O)O)c(F)c1 [2-(benzo[d]thiazole-2-carboxamido)-4-(2-fluoro-4-methylphenyl)thiophene-3-carboxylic acid]
O=C(CC1CCc2ccccc21)Nc1scc(-c2ccc(Cl)cc2)c1C(=O)O (centres unmarked) [4-(4-chlorophenyl)-2-(2-(2,3-dihydro-1H-inden-1-yl)acetamido)thiophene-3-carboxylic acid]
O=C(CCc1ccco1)Nc1scc(-c2ccc(Br)cc2)c1C(=O)O [4-(4-bromophenyl)-2-(3-(furan-2-yl)propanamido)thiophene-3-carboxylic acid]
O=C(Nc1scc(-c2cc3cccc(-c4cn[nH]c4)c3o2)c1C(=O)O)c1cc2ccccc2o1 [4-(7-(1H-pyrazol-4-yl)benzofuran-2-yl)-2-(benzofuran-2-carboxamido)thiophene-3-carboxylic acid]
O=Cc1ccc(-c2csc(NC(=O)c3nc4ccccc4o3)c2C(=O)O)cc1 [2-(benzo[d]oxazole-2-carboxamido)-4-(4-formylphenyl)thiophene-3-carboxylic acid]
Cc1ccc(-c2csc(NC(=O)c3ccsc3)c2C(=O)O)cc1C [4-(3,4-dimethylphenyl)-2-(thiophene-3-carboxamido)thiophene-3-carboxylic acid]
O=C(CCc1ccc(F)c(F)c1)Nc1scc(-c2ccc(Cl)cc2)c1C(=O)O [4-(4-chlorophenyl)-2-(3-(3,4-difluorophenyl)propanamido)thiophene-3-carboxylic acid]
O=C(Nc1scc(-c2ccc(Cl)cc2)c1C(=O)O)c1nc2ccccc2s1 [2-(benzo[d]thiazole-2-carboxamido)-4-(4-chlorophenyl)thiophene-3-carboxylic acid]
O=C(CCc1ccccc1Cl)Nc1scc(-c2ccc(Cl)cc2)c1C(=O)O [4-(4-chlorophenyl)-2-(3-(2-chlorophenyl)propanamido)thiophene-3-carboxylic acid]
O=C(Nc1scc(-c2ccc(Br)cc2)c1C(=O)O)c1ccc(C(F)(F)F)nc1 [4-(4-bromophenyl)-2-(6-(trifluoromethyl)nicotinamido)thiophene-3-carboxylic acid]
O=C(CSc1ccccc1)Nc1scc(-c2ccccc2Br)c1C(=O)O [4-(2-bromophenyl)-2-(2-(phenylthio)acetamido)thiophene-3-carboxylic acid]
Cc1cc(C(=O)Nc2scc(-c3ccc(Cl)cc3)c2C(=O)O)c(C)o1 [4-(4-chlorophenyl)-2-(2,5-dimethylfuran-3-carboxamido)thiophene-3-carboxylic acid]
O=C(Nc1scc(-c2ccc(Br)cc2)c1C(=O)O)c1ccc2nnsc2c1 [2-(benzo[d][1,2,3]thiadiazole-6-carboxamido)-4-(4-bromophenyl)thiophene-3-carboxylic acid]
O=C(Nc1scc(-c2ccc(Br)cc2)c1C(=O)O)c1nc2c(F)cccc2o1 [4-(4-bromophenyl)-2-(4-fluorobenzo[d]oxazole-2-carboxamido)thiophene-3-carboxylic acid]
Cc1ccc(-c2csc(NC(=O)c3nc4cc(F)c(F)cc4o3)c2C(=O)O)c(F)c1F [4-(2,3-difluoro-4-methylphenyl)-2-(5,6-difluorobenzo[d]oxazole-2-carboxamido)thiophene-3-carboxylic acid]
